Laboratory results: patent publication US12227500B2, “Substituted pyrrolo[2,3-b]pyridines for suppressing toxic endoplasmic reticulum stress” (THE TRUSTEES OF COLUMBIA UNIVERSITY IN THE CITY OF NEW YORK, priority 2018, dated 2025)

Legend:
Assay in all cases: Radiolabeled ATP kinase assay, panel of 371 kinases (Table S6)
Type in all cases: biochemical
[1] = target: T1, panel of 371 human kinases (Homo sapiens, UniProt O14965); conditions: Aurora A; 0.1 μM; 10 μM ATP; read-out: % Enzyme Activity (relative to DMSO controls)
T1 construct: purchased Reaction Biology Corp
Excerpt: (§1) ; FIG. 38C). […]. Further targeted analyses, such as genetic knock-down or knock-out, may be warranted to parse the role of these additional kinases in our model of neurodegeneration.

[2] = target: T2, panel of 371 human kinases (Homo sapiens, UniProt Q6XUX3); conditions: RIPK5; 0.1 μM; 10 μM ATP; read-out: % Enzyme Activity (relative to DMSO controls)
T2 construct: purchased Reaction Biology Corp
Excerpt: as §1

[3] = target: T3, panel of 371 human kinases (Homo sapiens, UniProt P35626); conditions: GRK3; 0.1 μM; 10 μM ATP; read-out: % Enzyme Activity (relative to DMSO controls)
T3 construct: purchased Reaction Biology Corp
Excerpt: as §1

[4] = target: T4, panel of 371 human kinases (Homo sapiens, UniProt P29376); conditions: TYK1/LTK; 0.1 μM; 10 μM ATP; read-out: % Enzyme Activity (relative to DMSO controls)
T4 construct: purchased Reaction Biology Corp
Excerpt: as §1

[5] = target: T5, panel of 371 human kinases (Homo sapiens, UniProt Q8IW41); conditions: MAPKAPK5/PRAK; 0.1 μM; 10 μM ATP; read-out: % Enzyme Activity (relative to DMSO controls)
T5 construct: purchased Reaction Biology Corp
Excerpt: as §1

[6] = target: T6, panel of 371 human kinases (Homo sapiens, UniProt P23458); conditions: JAK1; 0.1 μM; 10 μM ATP; read-out: % Enzyme Activity (relative to DMSO controls)
T6 construct: purchased Reaction Biology Corp
T6 sequence (P23458 whole entry): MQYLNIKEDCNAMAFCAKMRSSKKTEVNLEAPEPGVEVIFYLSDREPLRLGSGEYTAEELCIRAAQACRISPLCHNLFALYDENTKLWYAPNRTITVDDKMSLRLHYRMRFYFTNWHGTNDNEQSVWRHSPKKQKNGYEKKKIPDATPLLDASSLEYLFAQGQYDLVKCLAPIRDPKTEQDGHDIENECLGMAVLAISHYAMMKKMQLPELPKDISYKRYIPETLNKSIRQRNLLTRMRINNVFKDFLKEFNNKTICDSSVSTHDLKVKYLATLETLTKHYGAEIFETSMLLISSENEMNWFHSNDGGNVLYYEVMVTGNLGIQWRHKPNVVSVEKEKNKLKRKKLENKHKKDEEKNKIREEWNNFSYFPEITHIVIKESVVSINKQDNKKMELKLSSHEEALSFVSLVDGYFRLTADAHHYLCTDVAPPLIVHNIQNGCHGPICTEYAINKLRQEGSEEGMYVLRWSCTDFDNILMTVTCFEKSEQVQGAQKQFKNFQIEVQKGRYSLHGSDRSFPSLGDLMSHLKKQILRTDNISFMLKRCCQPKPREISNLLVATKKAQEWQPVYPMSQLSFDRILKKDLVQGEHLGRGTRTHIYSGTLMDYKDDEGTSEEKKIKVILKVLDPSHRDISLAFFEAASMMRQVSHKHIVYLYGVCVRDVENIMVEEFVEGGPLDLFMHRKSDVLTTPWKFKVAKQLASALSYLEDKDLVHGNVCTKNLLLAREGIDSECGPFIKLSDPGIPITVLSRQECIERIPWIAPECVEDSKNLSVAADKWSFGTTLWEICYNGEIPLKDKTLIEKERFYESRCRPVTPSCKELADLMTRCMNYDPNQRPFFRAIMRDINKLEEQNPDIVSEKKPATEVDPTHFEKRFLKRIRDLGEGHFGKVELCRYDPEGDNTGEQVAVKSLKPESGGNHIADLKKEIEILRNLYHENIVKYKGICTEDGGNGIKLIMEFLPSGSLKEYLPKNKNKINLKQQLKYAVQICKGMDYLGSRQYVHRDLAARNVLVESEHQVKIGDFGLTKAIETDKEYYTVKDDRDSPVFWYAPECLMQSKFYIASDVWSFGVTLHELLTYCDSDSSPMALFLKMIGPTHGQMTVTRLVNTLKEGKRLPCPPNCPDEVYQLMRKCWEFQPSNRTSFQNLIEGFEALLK
Excerpt: as §1

[7] = target: T7, panel of 371 human kinases (Homo sapiens, UniProt O00238); conditions: ALK6/BMPR1B; 0.1 μM; 10 μM ATP; read-out: % Enzyme Activity (relative to DMSO controls)
T7 construct: purchased Reaction Biology Corp
T7 sequence (O00238 14-502): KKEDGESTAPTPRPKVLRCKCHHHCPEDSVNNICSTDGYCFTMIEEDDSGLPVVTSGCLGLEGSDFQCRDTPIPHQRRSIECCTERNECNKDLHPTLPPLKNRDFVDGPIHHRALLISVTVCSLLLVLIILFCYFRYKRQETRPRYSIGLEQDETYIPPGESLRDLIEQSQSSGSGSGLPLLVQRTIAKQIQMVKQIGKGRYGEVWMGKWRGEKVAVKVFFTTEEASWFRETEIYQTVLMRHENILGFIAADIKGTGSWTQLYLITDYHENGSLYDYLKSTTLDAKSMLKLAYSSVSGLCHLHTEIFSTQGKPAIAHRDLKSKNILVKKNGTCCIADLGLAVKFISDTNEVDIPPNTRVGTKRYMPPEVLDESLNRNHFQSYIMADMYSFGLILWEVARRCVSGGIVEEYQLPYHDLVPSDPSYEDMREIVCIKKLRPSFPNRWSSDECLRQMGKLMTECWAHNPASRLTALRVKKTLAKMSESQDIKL
Excerpt: as §1

[8] = target: T8, panel of 371 human kinases (Homo sapiens, UniProt P53355); conditions: DAPK1; 0.1 μM; 10 μM ATP; read-out: % Enzyme Activity (relative to DMSO controls)
T8 construct: purchased Reaction Biology Corp
Excerpt: as §1

[9] = target: T9, panel of 371 human kinases (Homo sapiens, UniProt P31751); conditions: AKT2; 0.1 μM; 10 μM ATP; read-out: % Enzyme Activity (relative to DMSO controls)
T9 construct: purchased Reaction Biology Corp
T9 sequence (P31751 whole entry): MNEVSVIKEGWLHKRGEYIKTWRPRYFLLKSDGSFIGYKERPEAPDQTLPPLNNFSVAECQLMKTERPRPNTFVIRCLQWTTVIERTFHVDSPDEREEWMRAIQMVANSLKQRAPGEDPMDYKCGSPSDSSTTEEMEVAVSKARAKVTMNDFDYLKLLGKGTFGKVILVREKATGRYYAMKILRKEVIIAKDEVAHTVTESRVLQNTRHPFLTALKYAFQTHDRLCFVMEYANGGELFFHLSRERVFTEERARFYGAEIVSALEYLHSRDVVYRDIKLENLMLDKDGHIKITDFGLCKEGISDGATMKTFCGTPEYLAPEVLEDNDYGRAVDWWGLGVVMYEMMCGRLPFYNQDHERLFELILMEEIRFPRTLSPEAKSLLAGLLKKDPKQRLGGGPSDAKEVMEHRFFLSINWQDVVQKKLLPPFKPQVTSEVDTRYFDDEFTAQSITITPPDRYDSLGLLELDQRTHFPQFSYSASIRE
Excerpt: as §1

[10] = target: T10, panel of 371 human kinases (Homo sapiens, UniProt P42679); conditions: CTK/MATK; 0.1 μM; 10 μM ATP; read-out: % Enzyme Activity (relative to DMSO controls)
T10 construct: purchased Reaction Biology Corp
Excerpt: as §1

[11] = target: T11, panel of 371 human kinases (Homo sapiens, UniProt Q9BUB5); conditions: MNK1; 0.1 μM; 10 μM ATP; read-out: % Enzyme Activity (relative to DMSO controls)
T11 construct: purchased Reaction Biology Corp
T11 sequence (Q9BUB5 whole entry): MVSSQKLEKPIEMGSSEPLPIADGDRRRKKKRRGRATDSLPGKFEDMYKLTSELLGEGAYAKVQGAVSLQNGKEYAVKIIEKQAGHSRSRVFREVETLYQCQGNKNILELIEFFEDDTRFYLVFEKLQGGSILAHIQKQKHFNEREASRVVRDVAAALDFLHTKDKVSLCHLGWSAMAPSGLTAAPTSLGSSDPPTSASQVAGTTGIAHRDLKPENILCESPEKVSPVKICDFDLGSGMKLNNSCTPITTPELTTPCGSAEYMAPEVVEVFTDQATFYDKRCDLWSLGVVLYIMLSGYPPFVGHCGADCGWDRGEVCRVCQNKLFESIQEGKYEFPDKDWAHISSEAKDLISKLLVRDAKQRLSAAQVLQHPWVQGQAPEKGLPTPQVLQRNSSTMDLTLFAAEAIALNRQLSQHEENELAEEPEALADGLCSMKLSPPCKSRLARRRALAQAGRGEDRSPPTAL
Excerpt: as §1

[12] = target: T12, panel of 371 human kinases (Homo sapiens, UniProt O14733); conditions: MKK7; 0.1 μM; 10 μM ATP; read-out: % Enzyme Activity (relative to DMSO controls)
T12 construct: purchased Reaction Biology Corp
T12 sequence (O14733 whole entry): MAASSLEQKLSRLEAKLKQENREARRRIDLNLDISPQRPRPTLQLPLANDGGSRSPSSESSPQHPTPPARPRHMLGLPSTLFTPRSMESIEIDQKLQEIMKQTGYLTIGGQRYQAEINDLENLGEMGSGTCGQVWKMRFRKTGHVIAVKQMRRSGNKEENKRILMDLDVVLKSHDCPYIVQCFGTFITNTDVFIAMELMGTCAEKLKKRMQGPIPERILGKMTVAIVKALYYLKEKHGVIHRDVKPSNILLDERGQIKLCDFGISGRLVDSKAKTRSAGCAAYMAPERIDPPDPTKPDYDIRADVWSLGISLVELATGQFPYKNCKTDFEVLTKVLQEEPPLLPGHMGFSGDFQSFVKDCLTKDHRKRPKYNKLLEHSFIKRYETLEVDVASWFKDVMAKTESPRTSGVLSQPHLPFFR
Excerpt: as §1

[13] = target: T13, panel of 371 human kinases (Homo sapiens, UniProt P48730); conditions: CK1d; 0.1 μM; 10 μM ATP; read-out: % Enzyme Activity (relative to DMSO controls)
T13 construct: purchased Reaction Biology Corp
Excerpt: as §1

[14] = target: T14, panel of 371 human kinases (Homo sapiens, UniProt P24723); conditions: PKCeta; 0.1 μM; 10 μM ATP; read-out: % Enzyme Activity (relative to DMSO controls)
T14 construct: purchased Reaction Biology Corp
Excerpt: as §1

[15] = target: T15, panel of 371 human kinases (Homo sapiens, UniProt Q9NRH2); conditions: SNRK; 0.1 μM; 10 μM ATP; read-out: % Enzyme Activity (relative to DMSO controls)
T15 construct: purchased Reaction Biology Corp
Excerpt: as §1

[16] = target: T16, panel of 371 human kinases (Homo sapiens, UniProt Q04759); conditions: PKCtheta; 0.1 μM; 10 μM ATP; read-out: % Enzyme Activity (relative to DMSO controls)
T16 construct: purchased Reaction Biology Corp
Excerpt: as §1

[17] = target: T17, panel of 371 human kinases (Homo sapiens, UniProt P21709); conditions: EPHA1; 0.1 μM; 10 μM ATP; read-out: % Enzyme Activity (relative to DMSO controls)
T17 construct: purchased Reaction Biology Corp
T17 sequence (P21709 26-976): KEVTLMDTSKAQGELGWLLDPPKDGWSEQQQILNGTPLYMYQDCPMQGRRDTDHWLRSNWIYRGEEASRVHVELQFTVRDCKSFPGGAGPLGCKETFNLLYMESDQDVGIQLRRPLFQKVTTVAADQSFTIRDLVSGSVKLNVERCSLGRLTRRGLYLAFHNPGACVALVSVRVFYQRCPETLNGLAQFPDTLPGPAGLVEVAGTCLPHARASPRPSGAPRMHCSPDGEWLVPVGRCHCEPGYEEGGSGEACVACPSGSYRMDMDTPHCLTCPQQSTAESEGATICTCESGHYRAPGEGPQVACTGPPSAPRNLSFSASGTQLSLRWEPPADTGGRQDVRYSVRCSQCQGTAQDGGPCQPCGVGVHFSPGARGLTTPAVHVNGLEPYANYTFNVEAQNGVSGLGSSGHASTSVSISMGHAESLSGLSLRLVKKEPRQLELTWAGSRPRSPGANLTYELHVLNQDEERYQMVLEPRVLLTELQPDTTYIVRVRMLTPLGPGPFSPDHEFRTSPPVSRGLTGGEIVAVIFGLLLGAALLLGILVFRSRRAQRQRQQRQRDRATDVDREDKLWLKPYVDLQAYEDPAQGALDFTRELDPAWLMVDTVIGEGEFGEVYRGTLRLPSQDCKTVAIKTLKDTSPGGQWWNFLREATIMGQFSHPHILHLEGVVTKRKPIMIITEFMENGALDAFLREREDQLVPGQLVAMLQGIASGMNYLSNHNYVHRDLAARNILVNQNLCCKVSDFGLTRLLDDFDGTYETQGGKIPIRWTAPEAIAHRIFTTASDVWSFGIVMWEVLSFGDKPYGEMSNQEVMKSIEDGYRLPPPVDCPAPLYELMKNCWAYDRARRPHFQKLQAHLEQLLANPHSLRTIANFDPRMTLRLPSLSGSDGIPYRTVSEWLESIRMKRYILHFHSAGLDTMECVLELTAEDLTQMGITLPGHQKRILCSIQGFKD
Excerpt: as §1

[18] = target: T18, panel of 371 human kinases (Homo sapiens, UniProt O15530); conditions: PDK1/PDPK1; 0.1 μM; 10 μM ATP; read-out: % Enzyme Activity (relative to DMSO controls)
T18 construct: purchased Reaction Biology Corp
Excerpt: as §1

[19] = target: T19, panel of 371 human kinases (Homo sapiens, UniProt P51812); conditions: RSK2; 0.1 μM; 10 μM ATP; read-out: % Enzyme Activity (relative to DMSO controls)
T19 construct: purchased Reaction Biology Corp
Excerpt: as §1

[20] = target: T20, panel of 371 human kinases (Homo sapiens, UniProt Q07912); conditions: ACK1; 0.1 μM; 10 μM ATP; read-out: % Enzyme Activity (relative to DMSO controls)
T20 construct: purchased Reaction Biology Corp
Excerpt: as §1

[21] = target: T21, panel of 371 human kinases (Homo sapiens, UniProt Q13153); conditions: PAK1; 0.1 μM; 10 μM ATP; read-out: % Enzyme Activity (relative to DMSO controls)
T21 construct: purchased Reaction Biology Corp
Excerpt: as §1

[22] = target: T22, panel of 371 human kinases (Homo sapiens, UniProt Q9HBY8); conditions: SGK2; 0.1 μM; 10 μM ATP; read-out: % Enzyme Activity (relative to DMSO controls)
T22 construct: purchased Reaction Biology Corp
T22 sequence (Q9HBY8 whole entry): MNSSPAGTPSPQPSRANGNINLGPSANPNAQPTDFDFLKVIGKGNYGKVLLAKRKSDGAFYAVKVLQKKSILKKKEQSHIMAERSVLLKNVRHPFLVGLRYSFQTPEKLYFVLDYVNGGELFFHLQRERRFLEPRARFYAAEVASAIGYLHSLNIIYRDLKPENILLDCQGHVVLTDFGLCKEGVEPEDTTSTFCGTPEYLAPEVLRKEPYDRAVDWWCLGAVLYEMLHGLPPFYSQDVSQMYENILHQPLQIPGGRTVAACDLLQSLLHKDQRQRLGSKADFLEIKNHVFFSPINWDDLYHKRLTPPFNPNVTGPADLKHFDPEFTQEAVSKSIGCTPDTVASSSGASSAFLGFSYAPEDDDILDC
Excerpt: as §1

[23] = target: T23, panel of 371 human kinases (Homo sapiens, UniProt Q9P286); conditions: PAK5; 0.1 μM; 10 μM ATP; read-out: % Enzyme Activity (relative to DMSO controls)
T23 construct: purchased Reaction Biology Corp
T23 sequence (Q9P286 whole entry): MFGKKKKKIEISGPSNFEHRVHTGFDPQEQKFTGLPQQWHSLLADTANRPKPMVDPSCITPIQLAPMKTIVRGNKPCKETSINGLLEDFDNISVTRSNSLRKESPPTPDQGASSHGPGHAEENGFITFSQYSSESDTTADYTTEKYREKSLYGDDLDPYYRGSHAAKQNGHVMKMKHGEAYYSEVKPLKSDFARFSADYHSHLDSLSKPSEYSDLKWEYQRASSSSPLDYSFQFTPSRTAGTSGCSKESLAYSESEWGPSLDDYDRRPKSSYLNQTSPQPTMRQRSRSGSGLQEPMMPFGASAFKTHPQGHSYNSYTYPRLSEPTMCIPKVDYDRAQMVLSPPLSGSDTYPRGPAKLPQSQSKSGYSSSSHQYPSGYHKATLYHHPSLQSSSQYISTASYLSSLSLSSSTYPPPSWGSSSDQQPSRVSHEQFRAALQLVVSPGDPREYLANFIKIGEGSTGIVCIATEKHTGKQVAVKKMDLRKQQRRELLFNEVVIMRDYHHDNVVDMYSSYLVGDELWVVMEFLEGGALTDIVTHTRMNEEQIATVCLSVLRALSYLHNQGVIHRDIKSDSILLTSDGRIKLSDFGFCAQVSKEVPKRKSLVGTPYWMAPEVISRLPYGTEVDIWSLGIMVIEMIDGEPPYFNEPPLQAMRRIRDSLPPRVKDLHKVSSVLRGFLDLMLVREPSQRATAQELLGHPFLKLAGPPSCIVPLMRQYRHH
Excerpt: as §1

[24] = target: T24, panel of 371 human kinases (Homo sapiens, UniProt Q13470); conditions: TNK1; 0.1 μM; 10 μM ATP; read-out: % Enzyme Activity (relative to DMSO controls)
T24 construct: purchased Reaction Biology Corp
Excerpt: as §1

| SMILES | remaining activity at 0.1 µM [1] | remaining activity at 0.1 µM [2] | remaining activity at 0.1 µM [3] | remaining activity at 0.1 µM [4] | remaining activity at 0.1 µM [5] | remaining activity at 0.1 µM [6] | remaining activity at 0.1 µM [7] | remaining activity at 0.1 µM [8] | remaining activity at 0.1 µM [9] | remaining activity at 0.1 µM [10] | remaining activity at 0.1 µM [11] | remaining activity at 0.1 µM [12] | remaining activity at 0.1 µM [13] | remaining activity at 0.1 µM [14] | remaining activity at 0.1 µM [15] | remaining activity at 0.1 µM [16] | remaining activity at 0.1 µM [17] | remaining activity at 0.1 µM [18] | remaining activity at 0.1 µM [19] | remaining activity at 0.1 µM [20] | other results |
| --- | --- | --- | --- | --- | --- | --- | --- | --- | --- | --- | --- | --- | --- | --- | --- | --- | --- | --- | --- | --- | --- |
| CN1CCN(Cc2ccc(-c3cnc4[nH]cc(-c5ccc6[nH]ccc6c5)c4c3)cc2)CC1 [Compound 1, 3-(1H-Indol-5-yl)-5-(4-((4-methylpiperazin-1-yl)methyl)phenyl)-1H-pyrrolo[2,3-b]pyridine, reference compound] | 95.2% | 75.6% | 106% | 105% | 78.5% | 103% | 116% | 96.3% | 96.7% | 102% | 94% | 99.8% | 90% | 103% | 102% | 90.8% | 74.2% | 110% | 105% | 87.3% | remaining activity at 0.1 µM [21]: 85.2%; remaining activity at 0.1 µM [22]: 92.8%; remaining activity at 0.1 µM [23]: 113%; remaining activity at 0.1 µM [24]: 97% |
| OCCN1CCN(Cc2ccc(-c3cnc4[nH]cc(-c5cccc(Cl)c5)c4c3)cc2)CC1 [Compound 12k, 2-(4-(4-(3-(3-Chlorophenyl)-1H-pyrrolo[2,3-b]pyridin-5-yl)benzyl)piperazin-1-yl)ethan-1-ol] | 104% | 73.4% | 104% | 117% | 84.4% | 90.5% | 125% | 95.4% | 103% | 96.5% | 90.7% | 105% | 92.8% | 94.6% | 43.1% | 94.6% | 89.4% | 92.7% | 77.3% | 93.6% | remaining activity at 0.1 µM [21]: 78.2%; remaining activity at 0.1 µM [22]: 96.7%; remaining activity at 0.1 µM [23]: 99%; remaining activity at 0.1 µM [24]: 95.6% |
